Test results from publication PMC5365060, “Construction of an octosyl acid backbone catalyzed by a radical S-adenosylmethionine enzyme and a phosphatase in the biosynthesis of high-carbon sugar nucleoside antibiotics” (Chemical Science, 2016).

Target: T1, PolH (Streptomyces aureochromogenes, UniProt J7G018)
T1 construct: pET28a, N-terminal His6 tag, E. coli; anaerobically purified, reconstituted [4Fe-4S]; motif C225XXXC229XXC232
Assay: HPLC time course of OAP and […]'-deoxyadenosine
Type: biochemical
Details: 3'-EUMP, sodium dithionite, anaerobic; SAM consumed as co-substrate

T1 sequence (J7G018 entry or part of it): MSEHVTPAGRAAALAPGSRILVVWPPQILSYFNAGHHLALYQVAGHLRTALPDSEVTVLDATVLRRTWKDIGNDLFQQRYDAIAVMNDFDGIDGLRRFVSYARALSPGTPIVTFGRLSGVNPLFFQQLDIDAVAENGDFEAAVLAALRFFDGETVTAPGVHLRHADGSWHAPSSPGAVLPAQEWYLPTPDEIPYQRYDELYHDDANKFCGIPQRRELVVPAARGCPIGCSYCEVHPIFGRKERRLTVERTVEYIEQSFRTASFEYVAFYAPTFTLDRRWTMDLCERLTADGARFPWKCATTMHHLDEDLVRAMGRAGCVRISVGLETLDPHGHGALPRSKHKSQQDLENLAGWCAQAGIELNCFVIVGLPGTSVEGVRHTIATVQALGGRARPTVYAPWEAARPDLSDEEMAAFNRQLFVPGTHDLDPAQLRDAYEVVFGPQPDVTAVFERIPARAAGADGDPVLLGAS

For `C[S+](CC[C@H](N)C(=O)O)C[C@H]1O[C@@H](n2cnc3c(N)ncnc32)[C@H](O)[C@@H]1O` (stereo partly shown) [SAM], the “HPLC time course of OAP and 5'-deoxyadenosine” value was “indicating that SAM was being used as a co-substrate”.
